This data set is described as follows: Solubility. The data set is classed as physicochemical. The conditions noted are these: for solubility: aqueous buffer, 50 mM phosphate buffer, pH 7.4; for solubility, suitability for IV dosage forms: statement in words.

≈ marks a conversion by molar mass, not a printed value. Counter-ions that a name gives are not always drawn.

Usually solubility stands for how much of the substance goes into solution per volume. Low values mean a poorly soluble substance, high ones a readily soluble substance.

Take `CCn1c(-c2nonc2N)nc2c(C#CC(C)(C)O)ncc(OC[C@@H]3CNCCS3)c21` (single isomer, unassigned; enantiomer e1) [Example 3, 4-{2-(4-amino-1,2,5-oxadiazol-3-yl)-1-ethyl-7-[(2-thiomorpholinylmethyl)oxy]-1H-imidazo[4,5-c]pyridin-4-yl}-2-methyl-3-butyn-2-ol dihydrochloride (enantiomer E1)]: the solubility was determined as 110 µM and the “solubility, suitability for IV dosage forms” value (“solubility, suitability” for short) is “suitable for formulation into dosage forms for IV administration”.
The compound `CCn1c(-c2nonc2N)nc2c(C#CC(C)(C)O)ncc(OC[C@@H]3CN(C)CCS3)c21` (single isomer, unassigned; enantiomer e1) [Example 7, 4-(2-(4-amino-1,2,5-oxadiazol-3-yl)-1-ethyl-7-{[(4-methyl-2-thiomorpholinyl)methyl]oxy}-1H-imidazo[4,5-c]pyridin-4-yl)-2-methyl-3-butyn-2-ol (enantiomer E1)] came in with a solubility of 23 µM (≈ 10.5 µg/mL).
For `CCn1c(-c2nonc2N)nc2c(C#CC(C)(C)O)ncc(OCC3CNCC(C)O3)c21` (stereo in doubt) [Example 9, 4-[2-(4-amino-1,2,5-oxadiazol-3-yl)-1-ethyl-7-({[(2R)-6-methyl-2-morpholinyl]methyl}oxy)-1H-imidazo[4,5-c]pyridin-4-yl]-2-methyl-3-butyn-2-ol, dihydrochloride], the solubility was determined as 129 µM and the “solubility, suitability” value is “suitable for formulation into dosage forms for IV administration”.
Consider `CCn1c(-c2nonc2N)nc2c(C#CC(C)(C)O)ncc(OC[C@H]3CCCNC3)c21` [Example 1, 4-(2-(4-amino-1,2,5-oxadiazol-3-yl)-1-ethyl-7-{[(3S)-3-Piperidinylmethyl]oxy}-1H-imidazo[4,5-c]pyridin-4-yl)-2-methyl-3-butyn-2-ol], for which the solubility was 210 µM (≈ 89.4 µg/mL) and the “solubility, suitability” value is given as “suitable for formulation into dosage forms for IV administration”.
Regarding `CCn1c(-c2nonc2N)nc2c(C#CC(C)(C)O)ncc(OC[C@H]3CNCCO3)c21` [Example 2, 4-(2-(4-amino-1,2,5-oxadiazol-3-yl)-1-ethyl-7-{[(2R)-2-morpholinylmethyl]oxy}-1H-imidazo[4,5-c]pyridin-4-yl)-2-methyl-3-butyn-2-ol dihydrochloric acid salt], the solubility stood at 188 µM.
In the case of `CCn1c(-c2nonc2N)nc2c(C#CC(C)(C)O)ncc(OC[C@@H]3CNCCO3)c21` [Example 4, 4-(2-(4-amino-1,2,5-oxadiazol-3-yl)-1-ethyl-7-{[(2S)-2-morpholinylmethyl]oxy}-1H-imidazo[4,5-c]pyridin-4-yl)-2-methyl-3-butyn-2-ol], the solubility was determined as 154 µM (≈ 65.8 µg/mL) and the “solubility, suitability” value was “suitable for formulation into dosage forms for IV administration”.
In the case of `CCn1c(-c2nonc2N)nc2c(C#CC(C)(C)O)ncc(OCC3CCNC3)c21` (centres unmarked) [Example 5, 4-{2-(4-amino-1,2,5-oxadiazol-3-yl)-1-ethyl-7-[(3-Pyrrolidinylmethyl)oxy]-1H-imidazo[4,5-c]pyridin-4-yl}-2-methyl-3-butyn-2-ol, bis-trifluoroacetic acid salt], the solubility worked out at 83 µM.
In turn, `CCn1c(-c2nonc2N)nc2c(C#CC(C)(C)O)ncc(OC[C@H]3CCCN(C)C3)c21` [Example 6, 4-[2-(4-amino-1,2,5-oxadiazol-3-yl)-1-ethyl-7-({[(3S)-1-methyl-3-piperidinyl]methyl}oxy)-1H-imidazo[4,5-c]pyridin-4-yl]-2-methyl-3-butyn-2-ol, dihydrochloride] yielded a solubility of 44 µM.
Take `CCn1c(-c2nonc2N)nc2c(C#CC(C)(C)O)ncc(OC[C@@H]3CN(C)CCO3)c21` [Example 8, 4-[2-(4-amino-1,2,5-oxadiazol-3-yl)-1-ethyl-7-({[(2S)-4-methyl-2-morpholinyl]methyl}oxy)-1H-imidazo[4,5-c]pyridin-4-yl]-2-methyl-3-butyn-2-ol]: the solubility worked out at 34 µM (≈ 15 µg/mL).
Same read-out and setting: as for `CCN1CCO[C@H](COc2cnc(C#CC(C)(C)O)c3nc(-c4nonc4N)n(CC)c23)C1` [Example 10, 4-[2-(4-amino-1,2,5-oxadiazol-3-yl)-1-ethyl-7-({[(2S)-4-ethyl-2-morpholinyl]methyl}oxy)-1H-imidazo[4,5-c]pyridin-4-yl]-2-methyl-3-butyn-2-ol], the figure is 6 µM (≈ 2.73 µg/mL).

Source of the values: US7625890B2, “Substituted imidazo[4,5-c]pyridine compounds as Akt inhibitors” (SmithKline Beecham Corp., priority 2005, dated 2009).
